Literature values, collected in US11414442B2, “ARF6 inhibitors and related methods” (Navigen, Inc., priority 2017, dated 2022).
Where no end group is shown, it is not given here. The star is where a group is joined. Myristoyl = CCCCCCCCCCCCCC(=O)*

Experiments:
[1] = test system: vascular leak; conditions: in vivo; cited from earlier work
[2] = target: ARF6 (Homo sapiens, UniProt P62330); conditions: HMVEC-D cells; cited from earlier work
[3] = test system: VE-cadherin; conditions: cited from earlier work
[4] = test system: LPS-induced endotoxic shock; conditions: LPS 25 mg/kg IP, peptide IV; cited from earlier work

Chain of ARF6 (P62330 whole entry, species assumed): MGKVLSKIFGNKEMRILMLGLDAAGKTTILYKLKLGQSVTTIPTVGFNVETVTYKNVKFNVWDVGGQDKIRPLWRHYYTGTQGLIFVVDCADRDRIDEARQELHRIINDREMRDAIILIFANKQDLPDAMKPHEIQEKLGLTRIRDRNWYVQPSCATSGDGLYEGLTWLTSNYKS

MyrARF6 2-13: myristoylated peptide composed of amino acids 2-13 of ARF6, understood to inhibit ARF nucleotide exchange (Myristoyl-GKVLSKIFGNKE; UniProt P62330 2-13, looked up, fragment)
leak of Evans blue dye from the blood into lungs and kidneys [1]: prevented the leak | ARF6 activation [2]: reduced ARF6 activation | VE-cadherin at cell junctions [3]: increased VE-cadherin at cell junctions | survival during endotoxemia [4]: enhanced survival
